Data set [1] deals with T1, CYP2E1 (Homo sapiens, UniProt P05181). Kind of data set: in vitro. To be noted: human liver microsomes, pH 7.4, probe chlorzoxazone (6-hydroxylation). A general note: Liver microsomes are a subcellular fraction often used to study metabolism.
Description: (§2) Microsomes prepared from human liver were used to extract cytochrome P450 2E1 (CYP2E1) and CYP2E1 inhibitors were screened from 39 Chinese medicine guiding drugs and 10 excipients. Chlorzoxazone hydroxylation is a reaction catalyzed primarily by CYP2E1 in liver. The extracted human liver microsomal cytochrome P450 2E1 (CYP2E1) was mixed with its substrate, Chlorzoxazone, and test sample was then added Inhibition of CYP2E1 activity was calculated by measuring CYP2E1 standard metabolite, 6-OH-CZX (6-Hydroxy-Chlorzoxazone), and compared with control 6-OH-CZX.
(§3) After incubation, 16 mM Chlorzoxazone and test samples were added to experimental groups; methanol:sterilized water at 1:1 ratio was added to control groups and DDTC was added to positive control groups,
(§4) Finally, cofactor 1 mM NADP^+, 10 mM G6P and 2 IU G6PD were added and reaction mixtures were transferred to pre-incubation 37° C. water bath for 1 mM and activity was measured after 30 min of reaction
(§5) At the end of reaction, 500 μl acetonitrile was added to stop the reaction followed by 5 g/mL 4-hydroxy-tobutamide after 1 mM incubation. The mixture was then centrifuged and 20 L of supernatant was diluted ten times with methanol/sterilized water and 5 L was used for LC/MS/MS analysis. […] The inhibition of CYP2E1 was then calculated by the following equation:
The target in data set [2] is T1, CYP2E1. Kind of data set: Human liver microsomal CYP2E1, chlorzoxazone 6-hydroxylation.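 For all read-outs here: chlorzoxazone added as substrate, 6-hydroxychlorzoxazone formation quantified by LC/MS/MS after 30 min at 37 °C with NADP+ regenerating system, compared against solvent control without test sample.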 The conditions noted are these: human; for inhibition at 30 min, 0.08 % (w/v) / inhibition at 30 min, 16.5 µM / inhibition at 30 min, 33 µM / inhibition at 30 min, 66 µM: human liver microsomes, pH 7.4, probe Chlorzoxazone; for inhibition at 30 min, 0.167 % (w/v): microsomes, pH 7.4.
Description: as §2, §3, §4, §5

For data set [3], the target named is T2, human liver microsomal cytochrome P450 2E1 (CYP2E1) (Homo sapiens, UniProt P05181). The data set is described as above.
Description: as §2, §3, §4, §5
Data set [4] has as its target T2, human liver microsomal cytochrome P450 2E1 (CYP2E1).
Description: as §2, §3, §4, §5
Data set [5] relates to Male SD (Sprague-Dawley) rats. Put plainly: Rat study of INH combined with DSF and/or BNPP (AST, ALT, histology, 8-iso-PGF2α, GSP, GEC). Format: in vivo. The method, then: The body weight of the rats was monitored throughout the experiment. Rats were anesthetized with sodium pentobarbital intraperitoneally (i.p.) at the dose of 50 mg/kg and Galactose was injected intravenously through a polyethylene catheter positioned in internal jugular vein. The catheter was positioned by cut-down technique and its end was embedded under the skin behind the neck. After the surgery, the rats were fasted overnight during the recovery period (about 16 hours) with unrestricted water access.
Animals were randomized into one of five groups, each involving three treatments. The first treatment involved either a BNPP injection of 25 mg/kg or a BNPP vehicle (VEH1) injection (saline). […] The second treatment involved injections of either 100 mg/kg DSF or DSF vehicle (VEH2, corn oil). DSF was dissolved in corn oil and i.p. injected at a volume of […]. The third treatment involved injections of INH (25 mg/kg) or INH vehicle (VEH3, saline). INH was dissolved in saline (0.9% NaCl), and i.p. injected at a volume of […]. The first treatment (BNPP or VEH1) was administered 30 minutes before the third treatment (INH or VEH3), and the second treatment (DSF or VEH2) was administered 15 minutes before the third treatment (INH or VEH3).
Galactose elimination capacity (GEC) test was performed 16 hours […] at the end of 21 days-treatment to measure the liver function.
After 21 days treatment, the rats were sacrificed with ether and blood samples collected in test tubes containing EDTA by dorsal aorta extract. The blood samples were centrifuged at 13,000 g for 15 min at 4° C. and plasma was aliquot into eppendorf tubes and stored at −80° C.
(§1) After the rats were sacrificed, the livers were subjected to histology analysis.
All isomers of PGF2α were dissolved or diluted in adequate amount of ethanol and after aliquot, stored at −70° C. As an internal standard, 10 ng of 8-iso-PGF2α-d4 was mixed with 0.5 ml of plasma in a glass tube and was then purified by a C18 Solid-Phase Extraction column (J. T. Baker, MA, USA). Sample eluants were evaporated under a stream of nitrogen and re-dissolved in 50 μl acetonitrile:water (15:85 v/v) solution followed by vortex for 30 seconds and 10 μl extract was further analyzed with a LC/MS/MS system.
Shimadzu system control and one Shimadzu autosampler (Shimadzu, Japan). HPLC purification of the extract by C18 column (mesh size 5-μm, diameter 50×2.1 mm) using 2 mM ammonium acetate/acetonitrile, ACN gradient as mobile phase (t=0 mM, 15% ACN; t=6 mM, 70% ACN; t=7 mM, 90% ACN; t=8 mM, 90% ACN; t=8.5 min, 15% ACN). […] Such HPLC system was connected to a triple stage quadrupole mass spectrometer (API3000, Applied Biosystem, Foster City, Calif., USA) and is equipped with a Turbo Ion Spray ionization source, and uses negative electrospray for ionization. Such spectrophotometer uses diffusion of standard solution of 200 ng/ml 8-iso-PGF2α or 8-iso-PGF2α-d4 to optimize the mode for multiple reaction monitoring (MRM).
All rats were subjected to GSP and GEC tests.

The target of data set [6] is cytochrome P450 2E1 (CYP2E1) (Homo sapiens, UniProt P05181). Kind of data set: CYP2E1 High Throughput Inhibitor Screening Kit, cDNA synthesized microsomal CYP2E1 (MFC to HFC). To be noted: Table 3; minimum tested concentration (mg/L) × volume of human liver and intestine (3L). From the text:
CYP2E1 High Throughput Inhibitor Screening Kit (BD Bioscience, USA) was used to screen the cytochrome P450 (CYP2E1) inhibitors from 22 Chinese medicine guiding drugs and 10 excipients and microsomal cytochrome P450 (CYP2E1) was synthesized from cDNA (BD Bioscience, USA). The principle of the screening kit is to measure the percentage of CYP2E inhibition, after adding the test sample to substrate MFC (7-Methoxy-4-trifluoromethyl coumarin) and cytochrome P450 (CYP2E1), by measuring the synthesis of standard CYP2E1 metabolite (HFC, 7-Hydroxy-4-trifluoromethyl coumarin) and use control HFC as baseline.
a. 149 μl NADPH-Cofactor Mix and 1 μl 20 mM DDTC were added to the #1 well in a 96-well plate and mixed thoroughly,
b. Add 100 μl Cofactor/acetonitrile mix to #2 to #12 wells, and well #1 to #8 are positive control. Well #9 and 10 are control and well #11 and #12 are blank,
c. […] Preparation of Experimental Groups: a. […] Transfer 50 μl from well #1 and #2 and added to well #3 and mixed thoroughly (triplicate for each sample), 3. Initiation and Termination of the Reaction: a. The 96-well plate was incubated at 37° C. for […], b. 100 μl of Enzyme/Substrate Mix was added to every well and mixed thoroughly except the blank wells, c. The 96-well plate was incubated at 37° C. for 40 min, d. 75 μl Stop Solution was added to every well and mixed thoroughly, e. Immediately add 100 μl Enzyme/Substrate Mix to blank wells and mixed thoroughly, f. Measure with a Fluoroskan Ascent FL (Thermo Electron Corporation, Finland) with excitation at 405 nm and emission at 538 nm, 4. The fluorescence was transverse into CYP 2E1 metabolite standard (HFC) concentration (pmol) and the percentage (%) of CYP 2E1 inhibition was calculated using control as baseline by following equation: […]

Data set [7] relates to 129/sv mice. Put plainly: Mouse study of INH/RIF with oral Kaempferol, Mannitol, Saccharin, Sucralose, Dicalcium phosphate or Crospovidone. Format: in vivo. The conditions noted are these: 3 weeks, in words. The source says: Animals were randomized into one of thirteen groups, each involving three treatments. […].
All mice were subjected to GSP test.

For data set [8], the system named is 129/sv mice. Kind of data set: Mouse study of INH/RIF(/PZA) with i.p. Kaempferol or Quercetin.
Excerpt: Animals were randomized into one of seven groups, each involving five treatments.
All mice were subjected to GSP tests.
The next data set relates to amidase. Put plainly: Mouse liver microsomal amidase, isoniazid to isonicotinic acid. Format: biochemical.
The test system of data set [9] is 129/sv mice. Put plainly: Mouse study of INH/RIF/PZA with oral Mannitol (GSP). Format: in vivo. To be noted: in words.
Description: Mice were anesthetized with ether at the dose of 50 mg/kg and galactose was retro-orbitally injected and blood samples were collected 60 min after injection through tail vein.
Animals were randomized into one of three groups, each involving four treatments. […] The second treatment involved injections of 50 mg/kg INH or INH vehicle (VEH1, normal saline). […] The third treatment involved injections of RIF (100 mg/kg) or RIF vehicle (VEH2, saline). […] The fourth treatment involved injections of PZA (250 mg/kg) or PZA vehicle (VEH3, saline).
Data set [10] relates to Male SD (Sprague-Dawley) rats. Put plainly: Rat study of PZA combined with BNPP (AST, ALT, histology, GSP). Format: in vivo. The method, then: The body weight of the rats was monitored throughout the experiment. Rats were anesthetized with sodium pentobarbital intraperitoneally (i.p.) at the dose of 50 mg/kg and galactose was injected intravenously through a polyethylene catheter positioned in internal jugular vein. The catheter was positioned by cut-down technique and its end was embedded under the skin behind the neck. After the surgery, the rats were fasted overnight during the recovery period (about 16 hours) with unrestricted water access.
Animals were randomized into one of five groups, each involving three treatments. The first treatment involved either a BNPP injection of 50 mg/kg or a BNPP vehicle (VEH1) injection (saline). […] The second treatment involved injections of either 500 mg/kg PZA or PZA vehicle (VEH2, saline). PZA was dissolved in saline and i.p. injected at a volume of […]. The first treatment (BNPP or VEH1) was administered 15 minutes before the […].
2. PZA group (PZA, n=10): continuously injections of PZA, VEH1 and VEH2 intraperitoneally once every day for 49 days;
3. BNPP-PZA group (BNPP-PZA, n=10): continuously injections of BNPP, PZA and VEH2 intraperitoneally once every day for 49 days;
as §1
All rats were subjected to GSP tests.

The mark [11] stands for this setting: daily i.p. 3 weeks, INH/RIF 50/100 mg/kg, Kaempferol 3.78 mg/kg.
[12] abbreviates: i.p. daily 49 days, PZA 500 mg/kg, BNPP 50 mg/kg.

T2 sequence (P05181 whole entry): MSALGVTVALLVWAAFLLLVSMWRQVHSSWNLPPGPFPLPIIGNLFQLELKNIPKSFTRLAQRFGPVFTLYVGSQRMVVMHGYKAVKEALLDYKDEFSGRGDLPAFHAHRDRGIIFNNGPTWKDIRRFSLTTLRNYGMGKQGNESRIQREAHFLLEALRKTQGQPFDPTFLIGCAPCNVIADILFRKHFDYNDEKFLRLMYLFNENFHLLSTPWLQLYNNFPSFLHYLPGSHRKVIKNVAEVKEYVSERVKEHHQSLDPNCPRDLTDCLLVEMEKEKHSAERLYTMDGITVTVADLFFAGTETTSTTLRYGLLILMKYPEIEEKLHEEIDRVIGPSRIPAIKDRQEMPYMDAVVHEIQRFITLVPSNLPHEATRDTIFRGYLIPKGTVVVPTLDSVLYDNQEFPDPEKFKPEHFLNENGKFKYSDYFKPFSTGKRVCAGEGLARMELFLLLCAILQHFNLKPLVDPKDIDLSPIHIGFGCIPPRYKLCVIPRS
T1 sequence (P05181 whole entry): as above
Sequence of cytochrome P450 2E1 (CYP2E1) (P05181 whole entry): as above

For orientation: inhibition means the relative decrease from the control value, in per cent. `OCc1ccccc1` [Benzyl alcohol]: the inhibition at 30 min, […] at CYP2E1 [1] amounted to 7.7 ± 2.6%. In addition, at CYP2E1 [2], the inhibition at 30 min, 0.08 % (w/v) worked out at 6.7 ± 1% and the inhibition at 30 min, 0.167 % (w/v) is -10.3 ± 6.3%.
As to `CCCCCCCCCCCCCCCCCC(=O)OCC(O)CO` (centres unmarked) [Glycerrin monostearate], the “Inhibition of CYP 2E1” value in data set [3] (0.08% (w/v)) is on record as 7.4 ± 2.9%; in [3] (0.167% (w/v)) it was 6.9 ± 3.8%. Also, the inhibition in data set [4] was found to be 5.8 ± 1.7%.
As to `NNC(=O)c1ccncc1` [INH, isoniazid], the GEC values in data set [5] (21 days) is listed as 3.4±0.6 mg/min·kg. In [5] (i.p. once daily 21 days), the “plasma ALT activities” value was 52±3 IU/L, the “plasma AST activities” value stood at 129±10 IU/L and the “plasma concentrations of 8-iso-PGF2α” value is 0.151 ± 0.026 ng/mL. In addition, in data set [5] (three weeks, H&E, EM, in words), the liver histopathology result is recorded as “showed hepatocellular damage”.
`O=c1c(O)c(-c2ccc(O)cc2)oc2cc(O)cc(O)c12` [Kaempferol]: the “Minimum Effective Dose” value in data set [6] stood at 16 mg. Moreover, the “GSP values over treatment time” value with 129/sv mice [7] is “remained constant”. In [3] (Table 6, minimum tested concentration (mg/L) × volume of human liver and intestine (3 L)), the “Minimum Effective Dose” value was found to be 16 mg. Besides, the liver function tests entry with 129/sv mice [8] (Kaempferol 1.89 mg/kg with INH/RIF, in words) is recorded as “no obvious reduction”. In the data set on 129/sv mice [8] (setting [11]), this compound showed a GOT of 89±19 U/L and a GPT of 48±21 U/L.
Consider `OC[C@@H](O)[C@@H](O)[C@H](O)[C@H](O)CO` [Mannitol], for which the Amidase inhibition in the data set on amidase (0.0005%) came out at 58.3 ± 4.3%; with amidase (0.005%) it was 52.8 ± 7.6%; in the data set with amidase (0.05%) it was 1.9 ± 6.0%. Besides, the “GSP values over treatment time” value in the data set with 129/sv mice [7] is listed as “remained constant”; in the data set on 129/sv mice [9] it was “reamined constant”. Besides, the inhibition at 30 min, 16.5 µM against CYP2E1 [2] is 44.8 ± 1.8%. In addition, the inhibition at 30 min, 33 µM on CYP2E1 [2] came out at 51.2 ± 2.1%. Also, the inhibition at 30 min, 66 µM against CYP2E1 [2] was 54.5 ± 4.2%. The “Minimum Effective Dose” value in data set [3] (Table 7) is on record as 10 mg.
With `NC(=O)c1cnccn1` [PZA, pyrazinamide], in [10] (setting [12]), the “plasma ALT activities” value was 91±11 IU/L and the “plasma AST activities” value is 179±10 IU/L. Further, the liver histopathology result in data set [10] (seven weeks, in words) is “showed hepatocellular damage”.
As to `O=C1NS(=O)(=O)c2ccccc21` [Saccharin], the “GSP values over treatment time” value with 129/sv mice [7] is on record as “remained constant”. Besides, on CYP2E1 [2], the inhibition at 30 min, 16.5 µM was found to be 29.4 ± 2.7%; the inhibition at 30 min, 33 µM worked out at 51.2 ± 0.9%; the inhibition at 30 min, 66 µM amounted to 78.5 ± 2.1%. For the same compound, in [3] (Table 7), the “Minimum Effective Dose” value is reported as 10 mg.
With `OC[C@@H](O)[C@@H](O)[C@H](O)[C@@H](O)CO` [Sorbitol], on CYP2E1 [1], the inhibition at 30 min, […] was determined as 4.4 ± 1.7%. On CYP2E1 [2], the inhibition at 30 min, 0.08 % (w/v) turned out to be 5.6 ± 0.5% and the inhibition at 30 min, 0.167 % (w/v) is 16.1 ± 0.7%.
Regarding `OC[C@H]1O[C@H](O[C@]2(CCl)O[C@H](CCl)[C@@H](O)[C@@H]2O)[C@H](O)[C@@H](O)[C@H]1Cl` [Sucralose], the “GSP values over treatment time” value in the data set on 129/sv mice [7] is “remained constant”. In addition, at CYP2E1 [2], the inhibition at 30 min, 16.5 µM amounted to 37.1 ± 2.8%; the inhibition at 30 min, 33 µM was determined as 45.8 ± 4%; the inhibition at 30 min, 66 µM was found to be 55.8 ± 2%. In addition, the “Minimum Effective Dose” value in [3] (Table 7) was found to be 22 mg.
Take Sodium starch glycolate: in [4], the inhibition turned out to be 34.7 ± 1.3%.
On the same count and under the same terms, the figure for Tween 80 is 23.1 ± 3%.
